Laboratory results from patent US11123359B2, “Methods and materials for treating hematological malignancies” (Mayo Foundation for Medical Education and Research, priority 2013, dated 2021).
[nps] = N3'-P5' thiophosphoramidate linkage (3'-amino-3'-deoxy nucleosides); {Palm} = O-[2-hydroxy-3-(hexadecanoylamino)propyl] group (palmitoyl lipid)

Experiments:
[1] = system: granulocyte telomere length; experiment: Laboratory correlative study: granulocyte telomere length; format: in vivo, human; conditions: treated myelofibrosis patients
Experimental: (§1) Imetelstat sodium was administered by a 2-hour intravenous infusion (9.4 mg/kg) every three weeks (cohort A) or weekly×3 followed by every three weeks (cohort B). In addition, patient samples were screened for mutations in ASXL1, SRSF2, SF3B1, and U2AF1 by DNA sequencing. Quantitative PCR was used to measure JAK2V617F burden (assay sensitivity 0.01%). Laboratory correlative studies included analyses of granulocyte telomere length, mononuclear cell telomerase activity, and the presence of human telomerase reverse transcriptase (hTERT) isoforms.

[2] = system: mononuclear cell telomerase activity; experiment: Laboratory correlative study: mononuclear cell telomerase activity; format: in vivo, human; conditions: treated myelofibrosis patients
Experimental: as §1

[3] = system: human telomerase reverse transcriptase (hTERT) isoforms; experiment: Laboratory correlative study: human telomerase reverse transcriptase (hTERT) isoforms; format: in vivo; conditions: treated myelofibrosis patients
Experimental: as §1

[4] = system: patients with high or intermediate-2 risk myelofibrosis; experiment: Clinical study (NCT01731951): adverse events by common terminology criteria (Version 4.03); format: in vivo, human
Experimental: (§2) In an investigator-sponsored single-center study (ClinicalTrials.gov, Identifier: NCT01731951), imetelstat sodium was administered to patients with high or intermediate-2 risk myelofibrosis. Adverse events were monitored by common terminology criteria (Version 4.03), and responses were monitored by the International Working Group criteria. Eligibility criteria included platelets≥50×10^9/L.
as §1
(§3) Thirty-three patients were accrued. The first 18 patients who were enrolled and followed for a minimum of three months or discontinued were assessed herein: eleven for cohort A, and seven for cohort B; 44% primary myelofibrosis, 33% post-PV myelofibrosis and 22% post-ET myelofibrosis. The median age was 68 years, and the baseline risk was high in 56% of the patients and intermediate-2 in 44% of the patients. Seven patients were transfusion-dependent. Median spleen size was 13 cm, and eleven patients had constitutional symptoms. Karyotype was abnormal in seven patients, and 89% were JAK2-mutated. Fifteen patients (83%) were previously treated, including seven with a JAK inhibitor and three with pomalidomide.

[5] = system: patients with high or intermediate-2 risk myelofibrosis; experiment: Investigator-sponsored single-center clinical study (NCT01731951): responses by International Working Group criteria; format: in vivo, human
Experimental: as §2, §1, §3

[6] = cohort A (9.4 mg/kg every three weeks)
[7] = cohort B (9.4 mg/kg weekly x3 followed by every three weeks)
[8] = first 18 patients, 9.4 mg/kg iv

5′-[O-[2-hydroxy-3-[(1-oxohexadecyl)amino]propyl] phosphorothioate]-d(3′-amino-3′-deoxy-P-thio)(T-A-G-G-G-T-T-A-G-A-C-A-A) (SEQ ID NO:1) sodium salt (13) (TAGGGTTAGACAA; all [nps], 5' {Palm}*, sugars by position and methylation of C not given here; 3'-amino-3'-deoxy nucleosides, sodium salt) [imetelstat sodium, sodium salt of imetelstat, a synthetic lipid-conjugated, 13-mer oligonucleotide N3′ P5′-thio-phosphoramidate]
effect on telomere length [1]: shortening of telomere length
effect on telomerase activity [2]: suppression of telomerase activity
effect on hTERT isoform pattern [3]: alteration of the hTERT isoform pattern
grade-3 anemia [4, 6]: 9%
grade-3 thrombocytopenia [4, 6]: 27%
grade-4 treatment-related adverse events [4, 6]: no grade-4 treatment-related adverse events
grade-3 anemia [4, 7]: one
grade-3 neutropenia [4, 7]: one
grade-3 thrombocytopenia [4, 7]: one
grade-4 thrombocytopenia [4, 7]: 29%
dose reduction necessary because of grade 3 or 4 myelosuppression ([4]; first 18 patients): 11%
patients remaining on treatment ([4]; median follow-up of 3.2 months, first 18 patients): 89%
grade-3/4 myelosuppression ([4]; patients with an unmutated spliceosome genotype): 25%
grade-3/4 myelosuppression ([4]; spliceosome-mutated patients): 67%
complete molecular responses ([5]; CR patients, U2AF1Q157P and 10% JAK2V617F, SF3B1K666E and 50% JAK2V617F): two
reduction in U2AF1 469_insAGTATG mutation ([5]; a third CR patient): > 50%
patients with leukocytosis who normalized their count or had a >50% reduction ([5]; among thirteen patients with leukocytosis): 77%
CR patients transfusion-dependent at baseline who became transfusion-independent ([5]; first 18 patients): Two
complete or partial resolution of leukoerythroblastosis ([5]; first 18 patients): 61%
overall response rate ([5]; first 18 patients, 9.4 mg/kg 2-hour intravenous infusion, cohorts A and B): 44%
CR patients with reversal of bone marrow fibrosis and recovery of normal megakaryocyte morphology [5, 8]: 22%
partial response (PR), number of patients [5, 8]: 1 patients
patients who met the bone marrow and peripheral blood morphologic criteria for complete response (CR) or partial response (PR) [5, 8]: 28%
patients with clinical improvement ([5]; first 18 patients, pending validation of response duration and resolution of drug-induced grade-1 thrombocytopenia): three
patients achieving CR ([5]; six patients with a spliceosome mutated genotype): 50%
patients achieving CR ([5]; twelve patients with an unmutated spliceosome genotype): 8%

imetelstat: telomerase inhibitor; synthetic lipid-conjugated, 13-mer oligonucleotide N3′ P5′-thio-phosphoramidate (DNA TAGGGTTAGACAA; listed as DNA, chemistry not fully specified)
likelihood of complete or partial remission ([5]; ASXL1-mutated cases among the 33 study patients): 0%
likelihood of complete or partial remission ([5]; ASXL1-unmutated cases among the 33 study patients): 36%
